Measurements published in PubChem BioAssay (NCI).
Values joined by “and” are separate entries in the source; they are usually repeats but may differ in a detail not shown here. Equal entries are not always repeated.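 Cells were grown in 96-well plates and exposed to each compound for 48 hours at five concentrations; endpoints were interpolated linearly between bracketing concentrations, or set to the highest concentration if not reached. Here, GI50 denotes the concentration required for 50% inhibition of growth. The concentration for full growth arrest is given as TGI.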

Experiments:
Test in all cases: DTP human tumour cell line panel, 48 h
786-0 renal = system: 786-0 renal
SK-MEL-5 melanoma = system: SK-MEL-5 melanoma
HOP-62 NSCLC = system: HOP-62 NSCLC
SNB-75 CNS = system: SNB-75 CNS
HL-60(TB) leukemia = system: HL-60(TB) leukemia
T-47D breast = system: T-47D breast
LOX IMVI melanoma = system: LOX IMVI melanoma
HCC-2998 colon = system: HCC-2998 colon
MALME-3M melanoma = system: MALME-3M melanoma
HCT-116 colon = system: HCT-116 colon

Row | Structure (SMILES) | TGI (786-0 renal) | TGI (SK-MEL-5 melanoma) | TGI (HOP-62 NSCLC) | TGI (SNB-75 CNS) | TGI (HL-60(TB) leukemia) | TGI (T-47D breast) | TGI (LOX IMVI melanoma) | TGI (HCC-2998 colon) | TGI (MALME-3M melanoma) | TGI (HCT-116 colon) | GI50 (HL-60(TB) leukemia) | GI50 (T-47D breast) | GI50 (MALME-3M melanoma) | GI50 (SK-MEL-5 melanoma) | GI50 (HOP-62 NSCLC) | GI50 (SNB-75 CNS)
1 | COc1ccc(N2C(=O)C3c4[nH]c5ccc(OCc6ccccc6)cc5c4C4CCC(c5ccccc5)CC4C3C2=O)cc1 (stereo unspecified) | 7.51 µM | > 93.7 µM | 10.2 µM | 27.2 µM | 33.3 µM | 77.3 µM | > 100 µM | > 100 µM | 45.6 µM | > 100 µM | – | – | – | – | – | –
2 | COc1cc(/C=C2\C(=O)N(c3cccc([N+](=O)[O-])c3)C(c3ccccc3)S2(=O)=O)cc(OC)c1OC (stereo unspecified) | > 100 µM | > 100 µM | > 100 µM | > 100 µM | > 100 µM | > 100 µM | > 100 µM | > 100 µM | > 100 µM | > 100 µM | – | – | – | – | – | –
3 | Cn1nc2ccc([N+](=O)[O-])c(Cn3nnc4ccccc43)c2n1 | > 100 µM | > 100 µM | > 100 µM | > 100 µM | > 100 µM | > 100 µM | > 100 µM | > 100 µM | > 100 µM | > 100 µM | – | – | – | – | – | –
4 | COC(=O)Cc1cc(O)c2c(c1O)C(=O)c1ccccc1C2=O | > 77.1 µM | > 100 µM | 63.3 µM | 49 µM | > 100 µM | > 100 µM | > 100 µM | > 100 µM | > 100 µM | > 100 µM | – | – | – | – | – | –
5 | COc1cccc(N2C(=O)CSC2c2cccc(Oc3ccccc3)c2)c1 (stereo unspecified) | 24 µM | 16.9 µM | > 100 µM | 39.5 µM | 66.5 µM | > 100 µM | 27.2 µM | 7.23 µM | 53.7 µM | 12 µM | – | – | – | – | – | –
6 | CCC/C(Cl)=N\OC(=O)Nc1ccc(F)cc1 | 17.5 µM | 26.7 µM | 38.2 µM | > 58 µM | 3.86 µM | 21.9 µM | 9.97 µM | 32.4 µM | 20.5 µM | 31.1 µM | – | – | – | – | – | –
7 | CC1=NNC(=O)C1C1C(=O)NN=C(c2c[nH]c3ccccc23)C1Br (stereo unspecified) | > 100 µM | > 100 µM | > 100 µM | 58.9 µM | > 100 µM | > 100 µM | > 100 µM | – | > 100 µM | > 100 µM | – | – | – | – | – | –
8 | Cc1ccc2c(c1)-c1nc(N)c(C#N)c(-c3ccc(Cl)cc3)c1CCS2(=O)=O | > 100 µM | 40.2 µM | – | > 100 µM | 47 µM | > 100 µM | > 100 µM | > 100 µM | > 100 µM | > 100 µM | – | – | – | – | – | –
9 | Cc1ccc(C(=N)c2ccccc2Cc2cccc3ccccc23)c2ccccc12 | > 100 µM | > 100 µM | > 100 µM | > 100 µM | > 100 µM | > 100 µM | > 100 µM | – | > 100 µM | > 100 µM | – | – | – | – | – | –
10 | COC(=O)C1(NC(=O)C(CC(=O)OCc2ccccc2)NC(=O)OCc2ccccc2)CCCCCC1 (stereo unspecified) | > 100 µM | 28.8 µM | 67.5 µM | > 100 µM | 51 µM | > 100 µM | 66 µM | – | > 100 µM | > 100 µM | – | – | – | – | – | –
11 | CCOC(=O)c1c(C)n(Cc2ccc(Cl)cc2Cl)c2c1cc(O)c1[nH]c3c(c12)CCCC3 | > 100 µM | 44.5 µM | 93.7 µM | 48.6 µM | 2.79 µM | > 100 µM | > 100 µM | 63 µM | 43.2 µM | > 100 µM | – | – | – | – | – | –
12 | CC(=O)c1c(-c2cccc3ccccc23)c(C#N)c(=S)n(C2OC(CO)C(O)C(O)C2O)c1C (stereo unspecified) | > 100 µM | > 100 µM | > 100 µM | > 100 µM | > 100 µM | > 100 µM | > 100 µM | > 100 µM | > 100 µM | > 100 µM | > 100 µM and 42.1 µM | > 100 µM and 27.3 µM | > 100 µM | – | – | –
13 | C[C@@]1(O)C2CC3CC1(c1ccccc1)CC(/C3=N/O)/C2=N\O (stereo partly specified) | > 100 µM | > 100 µM | > 100 µM | > 100 µM | > 100 µM | > 100 µM | > 100 µM | > 100 µM | > 100 µM | > 100 µM | – | – | – | – | – | –
14 | OC1[C@@H]2[C@@H](O)CCCN2C[C@@H](O)[C@H]1O (stereo partly specified) | > 100 µM | > 100 µM | > 100 µM | > 100 µM | > 100 µM | > 100 µM | > 100 µM | > 100 µM | > 100 µM | > 100 µM | – | – | – | – | – | –
15 | O=C(Nc1ccccc1)N(C1=NCC(CI)S1)c1ccc(F)c(F)c1 (stereo unspecified) | > 100 µM | 37.2 µM | > 100 µM | 55.6 µM | 79.4 µM | > 100 µM | 34 µM | > 100 µM | > 100 µM | > 100 µM | – | – | – | – | – | –
16 | C=CCOC(=O)N1c2ccc(O[Si](C)(C)C(C)(C)C)cc2[C@@]23O[C@@]24[C@@H]1C#C/C=C\C#C[C@]3(O)C(OC)(OC)C[C@@H]4C | > 100 µM | > 100 µM | > 100 µM | > 75.9 µM | > 100 µM | > 100 µM | > 100 µM | > 100 µM | > 100 µM | > 100 µM | – | – | – | – | – | –
17 | O=c1[nH]c(Nc2ccccc2)nc2c1ncn2CC(O)CSCCO (stereo unspecified) | > 100 µM | > 100 µM | > 100 µM | > 100 µM | > 100 µM | > 100 µM | > 100 µM | > 100 µM | > 100 µM | > 100 µM | – | – | – | – | – | –
18 | O=C(/C=C(/C=C/c1ccc2[nH]ccc2c1)OB(F)F)/C=C/c1ccc2[nH]ccc2c1 | – | 13.3 µM | > 100 µM | 15.7 µM | > 100 µM | > 100 µM | – | – | > 100 µM | – | 1.88 µM | 1.99 µM | 2.62 µM | 2.98 µM | 3.38 µM | 2.72 µM
19 | Cc1ccc(Nc2nc3[nH]ccc3c(=O)[nH]2)cc1 | > 100 µM | > 100 µM | > 100 µM | 49.9 µM | > 100 µM | > 100 µM | > 100 µM | > 100 µM | > 100 µM | > 100 µM | – | – | – | – | – | –
20 | Oc1cc(Cc2ccccc2)c(Cc2ccccc2)cc1O | > 10 µM | > 10 µM | > 10 µM | > 10 µM | > 10 µM | > 10 µM | > 10 µM | > 10 µM | > 10 µM | > 10 µM | – | – | – | – | – | –
21 | NC(=O)CNC(=O)[C@@H]1CC(OCCC(=O)O)CN1C(=O)C1CCCN1C(=O)OCc1ccccc1 (stereo partly specified) | > 100 µM | > 100 µM | > 100 µM | > 100 µM | > 100 µM | > 100 µM | > 100 µM | – | > 100 µM | > 100 µM | – | – | – | – | – | –
22 | COC1CC(N)(c2ccccc2)C(O)C(C)O1 (stereo unspecified) | > 100 µM | > 100 µM | > 100 µM | > 100 µM | > 100 µM | > 100 µM | > 100 µM | > 100 µM | > 100 µM | > 100 µM | – | – | – | – | – | –
23 | CC(C)/C(Cl)=N/OC(=O)Nc1ccc(Br)cc1 | 3.63 µM | 26.3 µM | 31.7 µM | 34.3 µM | 7.62 µM | 9.95 µM | 2.85 µM | 29.4 µM | 3.85 µM | 10.4 µM | – | – | – | – | – | –
24 | CN(C)CC(O)c1ccc(Cl)c2ccccc12 (stereo unspecified) | > 100 µM | 31.4 µM | > 100 µM | > 89.1 µM | > 78 µM | 84.4 µM | > 66.6 µM | 29.9 µM | 86 µM | > 100 µM | – | – | – | – | – | –
25 | N#CN1C2CCC1CC(=O)C2 | > 100 µM | > 100 µM | > 100 µM | > 100 µM | > 100 µM | > 100 µM | > 100 µM | > 100 µM | > 100 µM | > 100 µM | – | – | – | – | – | –
26 | CC(C)(C)c1ccc(OCCOc2ccc(C(C)(C)C)cc2N)c(N)c1 | > 100 µM | > 100 µM | > 100 µM | > 100 µM | > 100 µM | > 100 µM | > 100 µM | > 100 µM | > 100 µM | > 100 µM | – | – | – | – | – | –
27 | CC(=O)O[C@H]1CC(C)(C)C(=C=C/C(C)=C/C=C/C=C/C=C(C)/C=C2C=C(/C=C/[C@@]34O[C@]3(C)C[C@@H](O)CC4(C)C)C(=O)O/2)[C@](C)(O)C1 | 85.9 µM | 28.9 µM | 32 µM | 28 µM | 4.9 µM | > 100 µM | – | > 100 µM | 41.9 µM | 50.5 µM | – | – | – | – | – | –
28 | Fc1ccc(C(OCCN2CCN(CCCc3ccccc3)CC2)c2ccc(F)cc2)cc1 | – | 10.1 µM | 17.7 µM | 16.4 µM | 16 µM | 19.3 µM | 15.6 µM | 11.7 µM | 17 µM | – | – | – | – | – | – | –
29 | [N-]=[N+]=Nc1c(Cc2ccccc2)c(Cl)nc2ccccc12 | > 100 µM | 30 µM | 51 µM | 93.3 µM | 56.6 µM | > 100 µM | 38.5 µM | > 100 µM | 41.8 µM | 53 µM | – | – | – | – | – | –
30 | CC(N=NNc1ccc(-c2nc3ccccc3[nH]2)cc1)C(=O)O (stereo unspecified) | 89.9 µM | > 100 µM | > 100 µM | > 100 µM | > 100 µM | > 100 µM | > 100 µM | – | > 100 µM | > 100 µM | – | – | – | – | – | –
